Assay [1] concerns caspase-3 activity in SNU-354 cells. Put plainly: Measurement of caspase-3 activity (Experimental Example 4). Format: cell-based, human. The arrangement: unit not given here. The procedure: SNU-354 cells treated with the compounds of Example 1˜Example 6 were lysed with lysis buffer (0.5% triton X-100, 20 mM Tris-HCl (pH 7.5), 2 mM magnesium chloride, 1 mM DTT, 1 mM EGTA, 50 mM β-glycerophosphate, 25 mM sodium fluoride, 1 mM Na3VO4, 2 μg/mL leupeptin, 2 μg/mL pepstatin A, 100 μg/mL phenylmethylsulfonyl fluoride, 1 μg/mL antipain). The protease analysis buffer necessary for the reaction (20 mM HEPES (pH 7.5), 10% glycerol, 2 mM DTT) was mixed with 20 μM Ac-DEVD-AMC (BD Biosciences, CA, USA) and cell lysates, followed by reaction at 37° C. for 1 hour. Upon completion of the reaction, caspase-3 activity was measured at 380 nm of excitation and 460 nm of emission with spectrofluorometer (TECAN, Switzerland) and the results are shown in FIG. 25 and Table 12.

Assay [2] relates to SNU-354 cells. Put plainly: Flow cytometry, sub G1 ratio change (Experimental Example 3). It counts as cell-based, human. To be noted: 10 μM, 24 hours, vehicle = 1.0. The procedure:
SNU-354 cells were seeded in a 90 mm dish, to which vehicle and the compounds of Examples 2˜6 were treated at the concentration of 10 μM each for 24 hours. The cells were collected and washed with cold PBS, followed by reaction in 500 μl of cold 70% ethanol at 4° C. for overnight to fix the cells. The cells were washed with 500 μl of PBS three times, followed by reaction with 500 μl of PBS containing 50 μg/mL propidium iodide (P1) and 50 μl of 1 mg/mL RNAse A at room temperature for 30 minutes in the darkness. Fluorescence of the P1 stained cell was measured by using FACS caliber flow cytometer and cell quest program (Becton Dickinson Immunocytometry Systems, CA, USA). Sub G1 ratio changes of SNU-354 cells induced by the compounds were measured by FACS analysis.

Assay [3] has as its system SNU-354 cells. Put plainly: 3H-thymidine incorporation assay. The following applies: 18˜24 hours. Format: cell-based, human. The procedure:
SNU-354 cells were distributed in a 6-well plate at the density of 5×10^4 cells/well, followed by culture in FBS-free medium for 24 hours. 24 hours later, the medium was replaced with the fresh one supplemented with FBS, the compounds of Examples 1 and 2 at different concentrations and 1 μCi/mL [^3H]dT (GE Healthcare, UK). 18˜24 hours later, the cells were washed with cold PBS and then fixed with cold 5% trichloroacetic acid. DNA was lysed in […] sodium hydroxide at 37° C. for 1 hour. Then, [^3H]dT incorporated during intracellular DNA synthesis was measured by LSC (liquid scintillation counting). Intracellular DNA synthesis measured above was used as index for the evaluation of cell viability.
For orientation: Incorporation of labelled thymidine or its analogues reports DNA synthesis.

In the next assay the target is T1, Cdk7/cyclin H/MAT1 (Homo sapiens, UniProt P50613).
T1 construct: purchased Upstate
T1 sequence (P50613 whole entry): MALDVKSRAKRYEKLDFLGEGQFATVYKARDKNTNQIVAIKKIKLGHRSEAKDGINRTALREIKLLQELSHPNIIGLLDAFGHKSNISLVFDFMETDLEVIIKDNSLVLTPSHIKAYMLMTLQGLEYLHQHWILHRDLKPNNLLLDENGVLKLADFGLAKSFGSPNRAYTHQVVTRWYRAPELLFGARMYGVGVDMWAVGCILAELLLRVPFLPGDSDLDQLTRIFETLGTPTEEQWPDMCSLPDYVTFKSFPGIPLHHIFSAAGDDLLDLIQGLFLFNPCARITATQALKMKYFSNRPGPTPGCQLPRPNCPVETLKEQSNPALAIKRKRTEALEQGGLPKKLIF
T1 sequence (P51946 whole entry partner): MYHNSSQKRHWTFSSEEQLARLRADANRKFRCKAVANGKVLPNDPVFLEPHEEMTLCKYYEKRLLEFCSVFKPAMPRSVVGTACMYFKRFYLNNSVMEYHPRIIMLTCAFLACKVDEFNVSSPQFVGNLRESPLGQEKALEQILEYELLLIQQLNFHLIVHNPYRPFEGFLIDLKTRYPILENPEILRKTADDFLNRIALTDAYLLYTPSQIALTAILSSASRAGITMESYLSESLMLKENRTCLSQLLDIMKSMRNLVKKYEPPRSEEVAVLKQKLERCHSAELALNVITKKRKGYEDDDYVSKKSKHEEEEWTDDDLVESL
T1 sequence (P51948 whole entry partner): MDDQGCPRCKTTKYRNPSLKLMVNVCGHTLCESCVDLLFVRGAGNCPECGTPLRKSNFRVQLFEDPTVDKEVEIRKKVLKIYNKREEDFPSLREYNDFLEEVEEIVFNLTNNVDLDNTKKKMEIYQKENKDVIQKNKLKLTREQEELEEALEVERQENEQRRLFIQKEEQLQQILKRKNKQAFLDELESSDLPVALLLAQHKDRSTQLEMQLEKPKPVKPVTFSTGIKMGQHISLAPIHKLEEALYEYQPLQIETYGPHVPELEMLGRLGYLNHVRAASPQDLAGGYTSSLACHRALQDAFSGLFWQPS
Put plainly: In vitro kinase assay of Cdk7, RNA Pol II-CTD-GST substrate. Format: biochemical. The following applies: 0 nM = 100. As to the method: (§1) To kinase assay buffer were added RNA Pol II-CTD-GST protein (Jena Bioscience, Germany) as a substrate, Cdk9/cyclin T1 or Cdk7/cyclin H/MAT1 recombinant protein (Upstate) as an enzyme, 2.5 μCi [γ-32P]ATP, and 100 μM MgAc/ATP. The total reaction volume was adjusted to 50 μl. Kinase assay reaction was induced at 30° C. for 20 minutes. Upon completion of the reaction, electrophoresis was performed on 8% SDS-polyacrylamide gel. The activities of Cdk7 and Cdk9 over the concentrations of the compounds of Example 1 and Example 2 were confirmed by autoradiography and the results are shown in FIG. 5˜FIG. 8 and Table 3.
(§2) The intensity of bands was analyzed by densitometry (GS-800, Bio-Rad).

The subject of the next assay is Cdk7. In words: Western blotting of Cdk7 activity (phospho RNA Pol II Ser 5). Format: cell-based, human. The following applies: 0 nM = 100. As to the method:
(§3) After treating the compound of Example 2 to SNU-354 cells, cell pellet was lysed with lysis buffer (0.5% triton X-100, 20 mM Tris-HCl (pH 7.5), 2 mM magnesium chloride, 1 mM DTT, 1 mM EGTA, 50 mM β-glycerophosphate, 25 mM sodium fluoride, 1 mM Na3VO4, 2 μg/mL leupeptin, 2 μg/mL pepstatin A, 100 μg/mL phenylmethylsulfonyl fluoride, and 1 μg/mL antipain) at 4° C. for 1 hour, followed by quantification of protein. A proper amount of protein was electrophoresed on SDS-PAGE gel and then transferred onto polyvinylidene difluoride membrane (Millipore Co., Bedford, Mass.). The membrane was reacted in inhibiting solution (PBS, 5% skim milk, 0.1% tween-20) at room temperature for 1˜2 hours. The membrane was reacted with the primary antibody (goat anti-phospho-Rb, rabbit anti-nucleolin) diluted in the inhibiting solution (1:1000). Then, the membrane was washed with PBST, followed by reaction with the proper secondary antibody (horseradish peroxidase (HRP) conjugated) at room temperature for 1 hour.
(§4) Experiment was performed by the same manner as described in step 2 of Experimental Example 1 except that rabbit anti-phospho RNA Pol II (Ser 5) and rabbit anti-phospho RNA Pol II (Ser 2) (from Bethyl, TX, USA) were used as primary antibodies. The results are shown FIG. 9˜FIG. 12, and Table 4 and Table 5.
A general note: Immunoblotting shows a protein as a band on a membrane.

A further assay concerns the target T2, Cdk9/cyclin T1 (Homo sapiens, UniProt P50750).
T2 construct: purchased Upstate
In words: In vitro kinase assay of Cdk9, RNA Pol II-CTD-GST substrate. It counts as biochemical. To be noted: 0 nM = 100. As to the method: as §1, §2

In another assay the test system is Cdk9. In words: Western blotting of Cdk9 activity (phospho RNA Pol II Ser 2). It counts as cell-based, human. The following applies: 0 nM = 100. As to the method:
as §3, §4

Assay [4] concerns SNU-354 cells. Put plainly: MTT assay, cell viability. It counts as cell-based. The following applies: Homo sapiens, SNU-354, read-out: Cell viability (%). As to the method: Cell viability was measured by MTT assay. SNU-354 cells in the log phase of cell growth curve were distributed in a 24-well plate at the density of 2×10^4 cells/well. […] After allowing enough time for reaction, MTT reagent (MTT dissolved in PBS at the concentration of 5 mg/mL) (Sigma-Aldrich, USA) was added to each well, followed by reaction at 37° C. for 3 hours. Then, the supernatant was eliminated and the precipitated formazan crystals were dissolved in dimethyl sulfoxide, followed by measurement of absorbance with ELISA plate reader.

“And” between values parts separate entries of the source, which are not always exact repeats. Equal entries are not always repeated.

Experimental findings from patent publication US9062088B2, “CDK-inhibiting pyrrolopyrimidine carboxamide derivative or pharmaceutically acceptable salt thereof, and pharmaceutical composition containing the same as active ingredient for preventing or treating hepatocellular carcinoma” (SNU R&DB Foundation, priority 2010, dated 2015) are described below.

For orientation: viability means a read-out of living cells in per cent, often relative to untreated cells.

T2 sequence (P50750 whole entry): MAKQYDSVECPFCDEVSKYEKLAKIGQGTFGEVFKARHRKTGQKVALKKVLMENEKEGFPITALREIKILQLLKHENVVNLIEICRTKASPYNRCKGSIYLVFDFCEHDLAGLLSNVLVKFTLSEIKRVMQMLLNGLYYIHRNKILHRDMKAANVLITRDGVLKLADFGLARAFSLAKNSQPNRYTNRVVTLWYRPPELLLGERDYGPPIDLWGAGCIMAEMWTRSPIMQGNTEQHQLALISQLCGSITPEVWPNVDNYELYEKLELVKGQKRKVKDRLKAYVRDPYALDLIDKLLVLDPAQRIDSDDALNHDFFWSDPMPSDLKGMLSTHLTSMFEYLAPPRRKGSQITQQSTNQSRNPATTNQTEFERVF
T2 sequence (O60563 whole entry partner): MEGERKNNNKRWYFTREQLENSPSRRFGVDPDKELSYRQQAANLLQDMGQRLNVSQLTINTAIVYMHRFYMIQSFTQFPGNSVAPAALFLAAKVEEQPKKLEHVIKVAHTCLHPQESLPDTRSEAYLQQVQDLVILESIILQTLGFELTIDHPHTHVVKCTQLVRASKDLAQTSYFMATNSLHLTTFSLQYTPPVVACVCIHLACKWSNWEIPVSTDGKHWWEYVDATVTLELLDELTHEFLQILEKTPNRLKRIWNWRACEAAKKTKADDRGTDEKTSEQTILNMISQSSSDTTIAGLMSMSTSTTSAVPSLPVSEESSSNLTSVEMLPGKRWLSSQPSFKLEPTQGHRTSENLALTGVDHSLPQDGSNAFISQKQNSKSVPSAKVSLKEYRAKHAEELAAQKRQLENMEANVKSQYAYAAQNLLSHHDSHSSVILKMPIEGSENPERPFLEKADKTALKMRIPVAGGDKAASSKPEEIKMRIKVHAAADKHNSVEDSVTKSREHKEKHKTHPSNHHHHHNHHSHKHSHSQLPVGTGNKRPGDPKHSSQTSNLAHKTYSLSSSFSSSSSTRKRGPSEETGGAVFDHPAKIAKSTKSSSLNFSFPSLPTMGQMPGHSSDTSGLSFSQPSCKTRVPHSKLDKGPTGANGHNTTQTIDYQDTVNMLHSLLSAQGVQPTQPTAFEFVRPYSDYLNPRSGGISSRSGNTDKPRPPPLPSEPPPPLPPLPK

As to `CCC(=O)OC[C@@H]1O[C@H](n2c(Br)c(C(N)=O)c3c(N)ncnc32)[C@@H](O)[C@@H]1O` [Example 6, ((2S,3S,4S,5S)-5-(4-amino-6-bromo-5-carbamoyl-7H-pyrrolo[2,3-d]pyrimidin-7-yl)-3,4-dihydroxytetrahydrofuran-2-yl)methyl propionate], the Caspase-3 activity in assay [1] (5 μM) was found to be 10.7; in assay [1] (10 μM), 11.7. Further, in the assay with SNU-354 cells [2], the “sub G1 ratio change” value turned out to be 5.9.
Regarding `CC[C@H](CO)Nc1nc(NCc2ccccc2)c2ncn(C(C)C)c2n1` [Roscosvitine, roscosvitine, reference compound], the “^3H-thymidine incorporation (%)” value with SNU-354 cells [3] (5.0 μM) stood at 98.2%; in the assay on SNU-354 cells [3] (10.0 μM), 91.0%; with SNU-354 cells [3] (50.0 μM), 47.2%. Besides, the Cdk7 activity on Cdk7/cyclin H/MAT1 (10 nM) is 92.0%; on Cdk7/cyclin H/MAT1 (100 nM), 43.4%; at Cdk7/cyclin H/MAT1 (1000 nM), 17.4%; in the assay on Cdk7 (0.1 nM), 96.0%; with Cdk7 (0.5 nM), 73.1%; in the assay with Cdk7 (1 nM), 51.5%. The Cdk7 activity with Cdk7 (5 nM) amounted to 51.6%; with Cdk7 (10 nM) it was 49.9%; with Cdk7 (50 nM), 4.0%. In addition, the Cdk9 activity at Cdk9/cyclin T1 (10 nM) was found to be 55.6%; on Cdk9/cyclin T1 (100 nM), 44.6%; on Cdk9/cyclin T1 (1000 nM), 42.2%; with Cdk9 (0.1 nM), 69.3%; in the assay on Cdk9 (0.5 nM), 48.5%; in the assay with Cdk9 (1 nM), 38.1%. In addition, the figures for the Cdk9 activity with Cdk9 (5 nM), in the assay on Cdk9 (10 nM) and in the assay on Cdk9 (50 nM) were 35.7%, 34.6% and 2.2%, respectively.
For the compound `NC(=O)c1c(Br)n([C@H]2O[C@@H](COC(=O)c3ccccc3)[C@@H](O)[C@@H]2O)c2ncnc(N)c12` [Example 5, ((2S,3S,4S,5S)-5-(4-amino-6-bromo-5-carbamoyl-7H-pyrrolo[2,3-d]pyrimidin-7-yl)-3,4-dihydroxytetrahydrofuran-2-yl)methyl benzoate], the results for the Caspase-3 activity in assay [1] (5 μM) and in assay [1] (10 μM) were 9.0 and 10.3, respectively. In the assay on SNU-354 cells [2], the “sub G1 ratio change” value was 5.5 and 6.0.
Regarding `CC(C)(C)C(=O)OC[C@@H]1O[C@H](n2cnc(N)c3c(C(N)=O)c(Br)nc2-3)[C@H](O)[C@H]1O` [Example 3, ((2S,3R,4R,5S)-5-(4-amino-6-bromo-5-carbamoyl-1H-pyrrolo[2,3-d]pyrimidin-1-yl)-3,4-dihydroxy-tetrahydrofuran-2-yl)methyl pivalate], the Caspase-3 activity in assay [1] (5 μM) was 8.2; in assay [1] (10 μM) it was 7.8. Further, the “sub G1 ratio change” value with SNU-354 cells [2] amounted to 5.7.
For `CC(=O)O[C@H]1[C@H](OC(C)=O)[C@@H](n2cnc(N)c3c(C(N)=O)c(Br)nc2-3)O[C@H]1COC(=O)C(C)C` [Example 4, (2S,3S,4R,5S)-2-(4-amino-6-bromo-5-carbamoyl-1H-pyrrolo[2,3-d]pyrimidin-1-yl)-5-(isobutyryloxymethyl)tetrahydrofuran-3,4-diyl diacetate], the Caspase-3 activity is 5.1 in assay [1] (5 μM) and 7.0 in assay [1] (10 μM). Besides, the “sub G1 ratio change” value in the assay with SNU-354 cells [2] amounted to 5.5.
Consider `Cn1cnc2c(NCc3ccccc3)nc(NCCO)nc21` [Olomoucine, olomoucine, reference compound], for which, in the assay on SNU-354 cells [3] (5.0 μM), the “^3H-thymidine incorporation (%)” value was 99.7%. Besides, the “^3H-thymidine incorporation (%)” value in the assay on SNU-354 cells [3] (10.0 μM) turned out to be 96.3%. In addition, the “^3H-thymidine incorporation (%)” value in the assay on SNU-354 cells [3] (50.0 μM) stood at 77.2%. Further, in the assay on SNU-354 cells [4], the viability at 0.5 µM stood at 98.9%, the viability at 1 µM was determined as 99.9%, the viability at 2 µM was found to be 99.9% and the viability at 5 µM was determined as 98.5%. Further, in the assay on SNU-354 cells [4], the viability at 10 µM stood at 101% and the viability at 50 µM is 96%.
